Experimental data as given in patent publication US8530489B2 (Vertex Pharmaceuticals Incorporated, priority 2006, dated 2013).

Target: PLK1 (Homo sapiens, UniProt P53350)
Test: PLK1 Inhibition Assay I (radioactive-phosphate incorporation)
Format: biochemical
Conditions: Ki(app); PLK1 Inhibition Assay I or II (table does not say which)
Method in brief: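 Ki(app) values came from non-linear regression of initial rates after background subtraction, with phosphopeptide measured by phosphocellulose filter binding and scintillation counting. PLK1 at 2 nM was preincubated with compound (typically from 10 μM, 2-fold dilutions) for 10 min, then run 240 min at 25° C with 350 μM [γ-33P]ATP and 450 μM peptide substrate in HEPES pH 7.5 buffer.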

PLK1, sequence (P53350 whole entry): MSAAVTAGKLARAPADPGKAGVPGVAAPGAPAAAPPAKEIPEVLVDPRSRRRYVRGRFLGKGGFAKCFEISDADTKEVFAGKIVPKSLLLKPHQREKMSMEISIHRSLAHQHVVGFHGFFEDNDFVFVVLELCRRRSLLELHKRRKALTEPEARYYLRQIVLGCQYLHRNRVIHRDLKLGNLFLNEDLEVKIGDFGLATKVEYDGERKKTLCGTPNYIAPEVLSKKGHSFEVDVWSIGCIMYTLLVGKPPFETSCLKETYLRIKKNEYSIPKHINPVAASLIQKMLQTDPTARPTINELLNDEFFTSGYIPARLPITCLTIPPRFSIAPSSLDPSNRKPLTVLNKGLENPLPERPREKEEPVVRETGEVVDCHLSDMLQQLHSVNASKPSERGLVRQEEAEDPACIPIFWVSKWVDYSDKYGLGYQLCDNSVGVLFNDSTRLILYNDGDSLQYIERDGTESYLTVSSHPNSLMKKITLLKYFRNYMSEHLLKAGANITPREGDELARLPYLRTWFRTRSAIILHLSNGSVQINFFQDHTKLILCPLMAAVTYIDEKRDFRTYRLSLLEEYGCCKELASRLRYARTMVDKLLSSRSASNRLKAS

SMILES | Ki [nM]
CCOc1cccc(Sc2ncc(C#N)c(-c3c[nH]c4ncc(C(F)(F)F)cc34)n2)c1 [II-9, 2-(3-ethoxyphenylthio)-4-(5-(trifluoromethyl)-1H-pyrrolo[2,3-b]pyridin-3-yl)pyrimidine-5-carbonitrile] | > 40
CC(Nc1ncc(C#N)c(-c2c[nH]c3ncc(C(F)(F)F)cc23)n1)c1ccc(N[C@@H]2CCN(C)C2)nc1 (stereo partly drawn) [Compound I-293, 2-(1-(6-((R)-1-methylpyrrolidin-3-ylamino)pyridin-3-yl)ethylamino)-4-(5-(trifluoromethyl)-1H-pyrrolo[2,3-b]pyridin-3-yl)pyrimidine-5-carbonitrile] | < 3
C[C@@H](Nc1ncc(C#N)c(-c2c[nH]c3ncc(C(F)(F)F)cc23)n1)[C@H]1CC[C@@H](NS(C)(=O)=O)CC1 (single isomer, unassigned) [Compound I-203] | < 3
N#Cc1cnc(NCc2ccc(-c3cccs3)cc2)nc1-c1c[nH]c2ncc(C(F)(F)F)cc12 [Compound I-54, 2-(4-(thiophen-2-yl)benzylamino)-4-(5-(trifluoromethyl)-1H-pyrrolo[2,3-b]pyridin-3-yl)pyrimidine-5-carbonitrile] | > 40
C[C@H](N)C(=O)N1CCC([C@@H](C)Nc2ncc(C#N)c(-c3c[nH]c4ncc(C(F)(F)F)cc34)n2)CC1 [Compound I-243, 2-((R)-1-(1-((S)-2-aminopropanoyl)piperidin-4-yl)ethylamino)-4-(5-(trifluoromethyl)-1H-pyrrolo[2,3-b]pyridin-3-yl)pyrimidine-5-carbonitrile] | < 3
CC(Nc1ncc(C#N)c(-c2c[nH]c3ncc(C(F)(F)F)cc23)n1)c1ccc(=O)[nH]c1 (stereo not drawn) [Compound I-100, 2-(1-(6-oxo-1,6-dihydropyridin-3-yl)ethylamino)-4-(5-(trifluoromethyl)-1H-pyrrolo[2,3-b]pyridin-3-yl)pyrimidine-5-carbonitrile] | < 3
C[C@H](Nc1ncc(C#N)c(-c2c[nH]c3ncc(C(F)(F)F)cc23)n1)c1ccc(O[C@H]2CCN(C)C2)cc1 [Compound I-161, 2-((S)-1-(4-((S)-1-methylpyrrolidin-3-yloxy)phenyl)ethylamino)-4-(5-(trifluoromethyl)-1H-pyrrolo[2,3-b]pyridin-3-yl)pyrimidine-5-carbonitrile] | < 3
N#Cc1cnc(NCc2ccc(O)c(O)c2)nc1-c1c[nH]c2ncc(C(F)(F)F)cc12 [Compound I-37, 2-(3,4-dihydroxybenzylamino)-4-(5-(trifluoromethyl)-1H-pyrrolo[2,3-b]pyridin-3-yl)pyrimidine-5-carbonitrile] | > 40
CCN1CCC(CNc2ncc(C#N)c(-c3c[nH]c4ncc(C(F)(F)F)cc34)n2)CC1 [Compound I-118, 2-((1-ethylpiperidin-4-yl)methylamino)-4-(5-(trifluoromethyl)-1H-pyrrolo[2,3-b]pyridin-3-yl)pyrimidine-5-carbonitrile] | > 40
CC(Nc1ncc(C#N)c(-c2c[nH]c3ncc(C(F)(F)F)cc23)n1)C1CCN(C(=O)CN(C)C)CC1 (stereo not drawn) [Compound I-193, 2-(1-(1-(2-(dimethylamino)acetyl)piperidin-4-yl)ethylamino)-4-(5-(trifluoromethyl)-1H-pyrrolo[2,3-b]pyridin-3-yl)pyrimidine-5-carbonitrile] | < 3
C[C@@H](Nc1ncc(C#N)c(-c2c[nH]c3ncc(C(F)(F)F)cc23)n1)[C@H]1CC[C@H](NC(=O)CN)CC1 [Compound I-264, 2-amino-N-((1R,4r)-4-((1R)-1-(5-cyano-4-(5-(trifluoromethyl)-1H-pyrrolo[2,3-b]pyridin-3-yl)pyrimidin-2-ylamino)ethyl)cyclohexyl)acetamide] | < 3
N#Cc1cnc(NC2CCCCC2)nc1-c1c[nH]c2ncc(C(F)(F)F)cc12 [Compound I-10, 2-(cyclohexylamino)-4-(5-(trifluoromethyl)-1H-pyrrolo[2,3-b]pyridin-3-yl)pyrimidine-5-carbonitrile] | 3 to 40
CC(Nc1ncc(C#N)c(-c2c[nH]c3ncc(C(F)(F)F)cc23)n1)c1ccc(N2CC(F)(C3CC3)C2)nc1 (stereo not drawn) [Compound I-191, 2-(1-(6-(3-cyclopropyl-3-fluoroazetidin-1-yl)pyridin-3-yl)ethylamino)-4-(5-(trifluoromethyl)-1H-pyrrolo[2,3-b]pyridin-3-yl)pyrimidine-5-carbonitrile] | 3 to 40
CCOc1ccc(C(C)Nc2ncc(C#N)c(-c3c[nH]c4ncc(C(F)(F)F)cc34)n2)cc1 (stereo not drawn) [Compound I-112, 2-(1-(4-ethoxyphenyl)ethylamino)-4-(5-(trifluoromethyl)-1H-pyrrolo[2,3-b]pyridin-3-yl)pyrimidine-5-carbonitrile] | < 3
C[C@@H](Nc1ncc(C#N)c(-c2c[nH]c3ncc(C(F)(F)F)cc23)n1)[C@H]1CC[C@H](NC(=O)CO)CC1 [Compound I-211, N-((1R,4r)-4-((1R)-1-(5-cyano-4-(5-(trifluoromethyl)-1H-pyrrolo[2,3-b]pyridin-3-yl)pyrimidin-2-ylamino)ethyl)cyclohexyl)-2-hydroxyacetamide] | < 3
CC(C)(Nc1ncc(C#N)c(-c2c[nH]c3ncc(Cl)cc23)n1)C(=O)NCCC(F)(F)F | > 40
N#Cc1cnc(NCc2cccnc2)nc1-c1c[nH]c2ncc(C(F)(F)F)cc12 [Compound I-14, 2-(pyridin-3-ylmethylamino)-4-(5-(trifluoromethyl)-1H-pyrrolo[2,3-b]pyridin-3-yl)pyrimidine-5-carbonitrile] | 3 to 40
COc1ccccc1Sc1ncc(C#N)c(-c2c[nH]c3ncc(C(F)(F)F)cc23)n1 [II-14, 2-(2-methoxyphenylthio)-4-(5-(trifluoromethyl)-1H-pyrrolo[2,3-b]pyridin-3-yl)pyrimidine-5-carbonitrile] | > 40
CC(C)C[C@@H](N)C(=O)N1CCC([C@@H](C)Nc2ncc(C#N)c(-c3c[nH]c4ncc(C(F)(F)F)cc34)n2)CC1 [Compound I-241, 2-((R)-1-(1-((R)-2-amino-4-methylpentanoyl)piperidin-4-yl)ethylamino)-4-(5-(trifluoromethyl)-1H-pyrrolo[2,3-b]pyridin-3-yl)pyrimidine-5-carbonitrile] | 3 to 40
C[C@@H](Nc1ncc(C#N)c(-c2c[nH]c3ncc(C(F)(F)F)cc23)n1)C1CCN(C(=O)[C@@H](N)[C@@H](C)O)CC1 [Compound I-242, 2-((R)-1-(1-((2S,3R)-2-amino-3-hydroxybutanoyl)piperidin-4-yl)ethylamino)-4-(5-(trifluoromethyl)-1H-pyrrolo[2,3-b]pyridin-3-yl)pyrimidine-5-carbonitrile] | < 3
N#Cc1cnc(NCCO)nc1-c1c[nH]c2ncc(C(F)(F)F)cc12 [Compound I-109, 2-(2-hydroxyethylamino)-4-(5-(trifluoromethyl)-1H-pyrrolo[2,3-b]pyridin-3-yl)pyrimidine-5-carbonitrile] | 3 to 40
C[C@@H](O)C(=O)N[C@H]1CC[C@H]([C@@H](C)Nc2ncc(C#N)c(-c3c[nH]c4ncc(C(F)(F)F)cc34)n2)CC1 [Compound I-265, Trans-(2R)—N-(4-((1R)-1-(5-cyano-4-(5-(trifluoromethyl)-1H-pyrrolo[2,3-b]pyridin-3-yl)pyrimidin-2-ylamino)ethyl)cyclohexyl)-2-hydroxypropanamide] | < 3
C[C@@H](Nc1ncc(C#N)c(-c2c[nH]c3ncc(C(F)(F)F)cc23)n1)c1ccc(N(C)CCCN(C)C)nc1 [Compound I-283, 2-((R)-1-(6-((3-(dimethylamino)propyl)(methyl)amino)pyridin-3-yl)ethylamino)-4-(5-(trifluoromethyl)-1H-pyrrolo[2,3-b]pyridin-3-yl)pyrimidine-5-carbonitrile] | 3 to 40
CC(C)(Nc1ncc(C#N)c(-c2c[nH]c3ncc(C(F)(F)F)cc23)n1)C(=O)NCCC(F)(F)F [IA-1, 2-(5-cyano-4-(5-(trifluoromethyl)-1H-pyrrolo[2,3-b]pyridin-3-yl)pyrimidin-2-ylamino)-2-methyl-N-(3,3,3-trifluoropropyl)propanamide] | > 40
CCNc1ncc(C#N)c(-c2c[nH]c3ncc(C(F)(F)F)cc23)n1 [Compound I-66, 2-(ethylamino)-4-(5-(trifluoromethyl)-1H-pyrrolo[2,3-b]pyridin-3-yl)pyrimidine-5-carbonitrile] | > 40
CC(Nc1ncc(C#N)c(-c2c[nH]c3ncc(C(F)(F)F)cc23)n1)C1CCN(S(=O)(=O)C2CC2)CC1 (stereo not drawn) [Compound I-158, 2-(1-(1-(cyclopropylsulfonyl)piperidin-4-yl)ethylamino)-4-(5-(trifluoromethyl)-1H-pyrrolo[2,3-b]pyridin-3-yl)pyrimidine-5-carbonitrile] | < 3
C[C@@H](Nc1ncc(C#N)c(-c2c[nH]c3ncc(C(F)(F)F)cc23)n1)C1CCN(C(=O)[C@@H]2CCCN2)CC1 [Compound I-236, 2-((R)-1-(1-((S)-pyrrolidine-2-carbonyl)piperidin-4-yl)ethylamino)-4-(5-(trifluoromethyl)-1H-pyrrolo[2,3-b]pyridin-3-yl)pyrimidine-5-carbonitrile] | < 3
N#Cc1cnc(NCC2CCN(Cc3ccccc3)CC2)nc1-c1c[nH]c2ncc(C(F)(F)F)cc12 [Compound I-89, 2-((1-benzylpiperidin-4-yl)methylamino)-4-(5-(trifluoromethyl)-1H-pyrrolo[2,3-b]pyridin-3-yl)pyrimidine-5-carbonitrile] | > 40
N#Cc1cnc(NCC2CCOCC2)nc1-c1c[nH]c2ncc(C(F)(F)F)cc12 [Compound I-57, 2-((tetrahydro-2H-pyran-4-yl)methylamino)-4-(5-(trifluoromethyl)-1H-pyrrolo[2,3-b]pyridin-3-yl)pyrimidine-5-carbonitrile] | 3 to 40
N#Cc1cnc(NCc2cnc3[nH]ccc3c2)nc1-c1c[nH]c2ncc(C(F)(F)F)cc12 [Compound I-120, 2-((1H-pyrrolo[2,3-b]pyridin-5-yl)methylamino)-4-(5-(trifluoromethyl)-1H-pyrrolo[2,3-b]pyridin-3-yl)pyrimidine-5-carbonitrile] | 3 to 40
